Data published in article PMC9935382, “Sorting nexin-dependent therapeutic targeting of oncogenic epidermal growth factor receptor” (Cancer Gene Therapy, 2022).
Entries after “also recorded” stand apart in the source; their conditions may differ. Each block holds one molecule with its values, some of them ahead of it.

Assays:
MDA-MB-231 cells = details: previously characterized; no reference given; cited from earlier work
T47D cells = details: previously characterized; no reference given; cited from earlier work
[1] = target: EGFR kinase domain protein (EGFRkin), residues 672-998 with N-terminal His-tag (human); test: MST; His-EGFRkin (50 nM) labelled through the His-tag with RED-tris-NTA 2nd Generation dye; SNX peptides or SNX-BAR protein titrated, 16 1:1 serial dilutions from 20 uM in PBS-T; room temperature; Monolith NT.115 pico
MCF10A cells = test: MTT cell viability, MCF10A; type: cell-based; details: immortalized breast epithelial line, 3 days
Procedure: (§1) 2 × 10^3 cells were plated per well in a 96 well plate and left to adhere overnight. The following day, drug treatments were started and continued for 3 days. To measure the viability of the remaining cell population, 10% 3-(4,5-dimethylthiazol-2-yl)-2,5-diphenyltetrazolium (MTT) in media was added and incubated for 2 hours and conversion of MTT to formazan at 540 nm using a biotech Synergy LX plate reader.
(§2) A–G Cells were plated in a 96-well plate at 2000 cells per well. […] Cell viability was then measured with an MTT assay, viability of treated cells were compared with the vehicle control. H MDA-MB-468 cells were plated and incubated+/− IPTG for 2 days prior to drug treatment to induce expression of an EGFR-targeted shRNA.

CHO cells = test: MTT cell viability, CHO; type: cell-based, Chinese hamster; details: CHO cells lack EGFR expression, 3 days
Procedure: as §1, §2
Supplementary Figure 1. A. BT20 triple negative breast cancer cells were treated with SNX1.1, 1.2, or 1.3 for 3 days and their viability was measured via MTT analysis. B. CHO cells were treated with PTD4 or SNX1.3 for 3 days and their viability was measured via MTT analysis.

[2] = target: T1, EGFR kinase domain (residues 672–998) (Homo sapiens, UniProt P00533); test: Microscale thermophoresis (MST) binding to EGFRkin; details: MST, His-EGFRkin 50 nM (RED-tris-NTA dye) titrated with ligand, 16 1:1 serial dilutions from 20 μM, PBS-T, room temperature
T1 construct: baculovirus insect cell expression system (residues 672–998 with N-terminal His-tag followed by TEV cleavage site); made in house; host or cells: Sf9 insect cells (Bac-to-Bac baculovirus, pFastBacHT)
Procedure: Briefly pFastBacHT plasmid containing the cDNA of EGFR kinase domain with N-terminal His-tag was transformed into DH10Bac E. coli to generate bacmid DNA. P1 virus was generated by transfecting 2.0 mL of sf9 cells at 1.0 million cells/ml density with the purified bacmid DNA (200–3000 ng/μL). The P1 virus was harvested after 5–7 days following transfection. The P1 virus was diluted 100-fold into an sf9 cell culture at a density of 2.0 million cells/ml and cultured for 3 days. Supernatant containing the P2 virus was collected by centrifugation and diluted 40-fold into 1.0 L of sf9 cells at a density of 2.0 million cells/ml. After 2.5–3 days, cell pellets were harvested by centrifugation at 3500 x g at 4 °C for 20 min, and flash frozen in liquid nitrogen prior to storage at −80 °C.
To purify the EGFR kinase domain, Sf9 cell pellets (~10 g) was thawed on ice and homogenized with 2 passages on an EmulsiFlex-C5 (Avestin) in 50 mL of lysis buffer (50 mM Tris pH 7.5, 600 mM NaCl, 1 mM EDTA, 1 mM TCEP, protease inhibitors, DNAase, and 10% Glycerol). The lysate was centrifugated and supernatant was collected and loaded onto a 1.0 mL HisTrap FF column (GE) at a flow rate of 1.0 ml/min. Following loading, the column was washed with 20 column volumes of wash buffer (50 mM Tris pH 7.5, 600 mM NaCl, 20 mM Imidazole, 1 mM TCEP, and 10% Glycerol) and eluted with a linear gradient of elution buffers containing 20 and 300 mM imidazole. Fractions containing the EGFR kinase domain proteins were combined and concentrated to less than 1.0 mL. The concentrated proteins were loaded onto a Superdex 200 10/300 GL column (GE) equilibrated in buffer (20 mM Tris pH 7.5, 100 mM NaCl) for further purification. The purified proteins were concentrated, flash frozen in liquid nitrogen, and stored at −80 °C.
MST experiments were carried out using a Monolith NT.115 pico instrument (NanoTemper Technologies, Munich Germany). […] Kd values were derived from the concentration-dependent changes in normalized fluorescence (Fnorm). Data were analyzed using NanoTemper MO. […]

Molecule: C#Cc1cccc(Nc2ncnc3cc(OCCOC)c(OCCOC)cc23)c1 [erlotinib]
resistance to erlotinib (MDA-MB-231 cells): resistant | resistance to erlotinib (T47D cells): resistant

Kd [1]: 3000 nM
Molecule: human SNX-BAR protein (SNX1 BAR domain, residues 301-522) (from UniProt Q13596 301-522) (domain or fragment)

Molecule: CNC(=O)CN1CCC(Oc2cc3c(Nc4cccc(Cl)c4F)ncnc3cc2OC)CC1 [Sapitinib]
impact on cell viability / growth (MCF10A cells): more effective at inhibiting cell growth in immortalized cells than in cancer cells; also recorded: significantly reduces viability of normal cells | impact on cell viability / growth (CHO cells): more effective at inhibiting cell growth in immortalized cells than in cancer cells

Kd [2]: 3000 nM | Kd ([2]; listed as SNX1 Bar): 2900 ± 1700 nM
B1: BAR domain: human SNX1 BAR domain, residues 301–522, expressed in E. coli (protein)
chain: KMNESDIWFEEKLQEVECEEQRLRKLHAVVETLVNHRKELALNTAQFAKSLAMLGSSEDNTALSRALSQLAEVEEKIEQLHQEQANNDFFLLAELLSDYIRLLAIVRAAFDQRMKTWQRWQDAQATLQKKREAEARLLWANKPDKLQQAKDEILEWESRVTQYERDFERISTVVRKEVIRFEKEKSKDFKNHVIKYLETLLYSQQQLAKYWEAFLPEAKAIS
modifications: left off: MBP, N-terminal, cleaved
notes: human SNX1 BAR domain, residues 301–522, expressed in E. coli
